Experimental findings from patent US10683278B2 (JINAN UNIVERSITY, priority 2015, dated 2020) are described below.

The structures appear in SMILES notation.

In this assay the target is T1, AXL kinase (Homo sapiens, UniProt P30530).
T1 construct: purchased Invitrogen PV4803
T1 sequence (P30530 26-894): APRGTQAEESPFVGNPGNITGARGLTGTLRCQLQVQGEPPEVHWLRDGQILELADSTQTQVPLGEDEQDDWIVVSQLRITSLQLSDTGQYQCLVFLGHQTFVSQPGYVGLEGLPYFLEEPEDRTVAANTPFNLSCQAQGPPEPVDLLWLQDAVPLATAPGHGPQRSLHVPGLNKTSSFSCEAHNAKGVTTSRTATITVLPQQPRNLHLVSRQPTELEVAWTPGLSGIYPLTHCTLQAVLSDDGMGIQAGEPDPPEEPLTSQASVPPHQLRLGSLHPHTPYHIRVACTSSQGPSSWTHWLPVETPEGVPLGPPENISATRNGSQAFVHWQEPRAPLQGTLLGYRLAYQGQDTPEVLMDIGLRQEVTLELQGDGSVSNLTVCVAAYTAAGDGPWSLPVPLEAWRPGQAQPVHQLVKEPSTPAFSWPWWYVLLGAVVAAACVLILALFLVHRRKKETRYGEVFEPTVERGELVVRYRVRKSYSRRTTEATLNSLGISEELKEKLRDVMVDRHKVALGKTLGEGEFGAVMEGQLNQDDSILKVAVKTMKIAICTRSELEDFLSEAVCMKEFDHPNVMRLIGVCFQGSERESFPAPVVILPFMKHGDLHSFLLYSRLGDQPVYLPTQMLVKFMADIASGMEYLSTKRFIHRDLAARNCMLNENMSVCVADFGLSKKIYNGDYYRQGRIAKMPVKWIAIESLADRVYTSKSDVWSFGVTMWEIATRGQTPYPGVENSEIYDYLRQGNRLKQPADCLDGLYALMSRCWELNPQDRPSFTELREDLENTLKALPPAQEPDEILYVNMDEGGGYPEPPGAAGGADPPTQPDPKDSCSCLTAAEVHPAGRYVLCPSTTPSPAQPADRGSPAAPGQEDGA
Nature of the assay: IC50 test on AXL kinase (Z′-LYTE FRET kinase activity detection). It counts as biochemical. The settings on record: Z′-LYTE FRET peptide assay, 1 h reaction. The source says:
Kinase activity detection: The activity of compounds on kinases was detected by a secondary reaction which used the Z′-LYTE™ technique (a detection using fluorescence, enzyme coupling, and based on differences in susceptibility of phosphorylated and non-phosphorylated polypeptides to proteolytic cleavage), followed the fluorescence resonance energy transfer (FRET) principle, and used Z′-LYTE™ FRET peptide substrates (Invitrogen, Z′-LYTE™ KINASE ASSAY KIT—TYR 2 PEPTIDE, PV3191). AXL kinase (invitrogen, PV4803) was diluted stepwise, FRET peptide was then added, followed by ATP, then by compounds at different concentrations, reacted for 1 h, site-specific proteases were then added to recognize and cleave non-phosphorylated FRET peptides, reacted for 1 h, and […] at 445 nm and 520 nm were detected using excitation wavelength of 400 nm.
In general, IC50 refers to the midpoint of a concentration-inhibition curve. On to `COc1cc2ncnc(Oc3ccc(NC(=O)c4cn(-c5ccc(F)cc5F)c5nc(N6CCC(N)C6)c(F)cc5c4=O)cc3F)c2cc1OC` (stereo not shown) [GDL5000101, 7-(3-aminopyrrolidin-1-yl)-1-(2,4-difluorophenyl)-N-(4-(6,7-dimethoxyquinazolin-4-yloxy)-3-fluorophenyl)-6-fluoro-4-oxo-1,4-dihydro-1,8-naphthyridine-3-carboxamide], for which the IC50 was determined as 81 nM.

`Cc1ccc2c(c1)c(=O)c(C(=O)Nc1ccc(Oc3ncnc4[nH]cc(-c5ccccc5)c34)c(F)c1)c(C)n2-c1ccccc1` [GDL5000083, N-(3-fluoro-4-((5-phenyl-7H-pyrrolo[2,3-d]pyrimidine-4-yl)oxy)phenyl)-2,6-dimethyl-4-oxo-1-phenyl-1,4-hydroquinoline-3-carboxamide] showed an IC50 of 618 nM.

For the compound `Cc1c(C(=O)Nc2ccc(Oc3ncnc4[nH]ccc34)c(F)c2)c(=O)c2cc(Cl)ccc2n1C` [TL50046, N-(4-((7H-pyrrolo[2,3-d]pyrimidin-4-yl)oxy)-3-fluorophenyl)-6-chloro-1,2-dimethyl-4-oxo-1,4-dihydroquinoline-3-carboxamide], the IC50 is more than 10000 nM.

Compound `Cc1ccc2c(c1)c(=O)c(C(=O)Nc1ccc(Oc3ncnc4[nH]cc(-c5ccccc5)c34)c(F)c1)cn2C` [TL4800167, N-(3-fluoro-4-(5-phenyl-7H-pyrrolo[2,3-d]pyrimidin-4-yloxy)phenyl)-1,6-dimethyl-4-oxo-1,4-dihydroquinoline-3-carboxamide] registered an IC50 of 152 nM.

In the case of `Cc1c(C(=O)Nc2ccc(Oc3ccnc4[nH]nc(-c5ccccc5)c34)c(F)c2)c(=O)c2cc(Cl)ccc2n1C` [TL50025, 6-chloro-N-(3-fluoro-4-((3-phenyl-1H-pyrazolo[3,4-b]pyridin-4-yl)oxy)phenyl)-1,2-dimethyl-4-oxo-1,4-dihydroquinoline-3-carboxamide], the IC50 came to 569 nM.

In turn, `COc1cc2ncnc(Oc3ccc(NC(=O)c4cn(CCF)c5c(F)c(N6CCN(C)CC6)c(F)cc5c4=O)cc3F)c2cc1OC` [TL4830040, N-(4-(6,7-dimethoxyquinazolin-4-yloxy)-3-fluorophenyl)-6,8-difluoro-1-(2-fluoroethyl)-7-(4-methylpiperazin-1-yl)-4-oxo-1,4-dihydroquinoline-3-carboxamide] registered an IC50 of 224 nM.

`CC1COc2c(N3CCN(C)CC3)c(F)cc3c(=O)c(C(=O)Nc4ccc(Oc5ncnc6[nH]cc(-c7ccccc7)c56)c(F)c4)cn1c23` (stereo not shown) [TL4800088, 9-fluoro-N-(3-fluoro-4-((5-phenyl-7H-pyrrolo[2,3-d]pyrimidin-4-yl)oxy)phenyl)-3-methyl-10-(4-methylpiperazin-1-yl)-7-oxo-3,7-dihydro-2H-[1,4]oxazino[2,3,4-ij]quinoline-6-carboxamide] registered an IC50 of 429 nM.

In turn, `Cc1c(C(=O)Nc2ccc(Oc3ncnc4[nH]cc(-c5ccccc5)c34)c(F)c2)c(=O)c2ccccc2n1C` [TL50054, N-(3-fluoro-4-((5-phenyl-7H-pyrrolo[2,3-d]pyrimidin-4-yl)oxy)phenyl)-1,2-dimethyl-4-oxo-1,4-dihydroquinoline-3-carboxamide] showed an IC50 of more than 10000 nM.

Take `CCCCn1c(C)c(C(=O)Nc2ccc(Oc3ncnc4[nH]cc(-c5ccccc5)c34)c(F)c2)c(=O)c2cc(C)ccc21` [TL4800080, 1-butyl-N-(3-fluoro-4-((5-phenyl-7H-pyrrolo[2,3-d]pyrimidin-4-yl)oxy)phenyl)-2,6-dimethyl-4-oxo-1,4-dihydroquinoline-3-carboxamide]: the midpoint of inhibition, the IC50, lay at 476 nM.

Turning to `COc1cc2ncnc(Oc3ccc(NC(=O)c4cn(C5CC5)c5c(F)c(N6CC(C)NC(C)C6)c(F)c(N)c5c4=O)cc3F)c2cc1OC` (stereo not shown) [TL4830044, 5-amino-1-cyclopropyl-N-(4-(6,7-dimethoxyquinazolin-4-yloxy)-3-fluorophenyl)-7-(3,5-dimethylpiperazin-1-yl)-6,8-difluoro-4-oxo-1,4-dihydroquinoline-3-carboxamide], the IC50 was 503 nM.

Turning to `Cc1c(C(=O)Nc2ccc(Oc3ncnc4[nH]cc(-c5ccccc5)c34)c(F)c2)c(=O)c2cc(Cl)ccc2n1C` [TL50053, 6-chloro-N-(3-fluoro-4-((5-phenyl-7H-pyrrolo[2,3-d]pyrimidin-4-yl)oxy)phenyl)-1,2-dimethyl-4-oxo-1,4-dihydroquinoline-3-carboxamide], the half-maximal inhibitory concentration (IC50) amounted to 1890 nM.

With `Cc1c(C(=O)Nc2ccc(Oc3ncnc4[nH]cc(-c5ccccc5)c34)c(F)c2)c(=O)c2cc(C3=CCCC3)ccc2n1C` [TL50160, 6-cyclopentenyl-N-(3-fluoro-4-((5-phenyl-7H-pyrrolo[2,3-d]pyrimidin-4-yl)oxy)phenyl)-1,2-dimethyl-4-oxo-1,4-dihydroquinoline-3-carboxamide], the half-inhibitory concentration (IC50) worked out at 4530 nM.

Compound `Cc1c(C(=O)Nc2ccc(Oc3ncnc4[nH]cc(-c5ccccc5)c34)c(F)c2)c(=O)c2cc(C3CC3)ccc2n1C` [TL50148, 6-cyclopropyl-N-(3-fluoro-4-((5-phenyl-7H-pyrrolo[2,3-d]pyrimidin-4-yl)oxy)phenyl)-1,2-dimethyl-4-oxo-1,4-dihydroquinoline-3-carboxamide] registered an IC50 of 227 nM.

The compound `CCc1ccc2c(c1)c(=O)c(C(=O)Nc1ccc(Oc3ncnc4cc(OCCCN(C)C)c(OC)cc34)c(F)c1)c(C)n2C` [TL4830076, N-(4-(7-(3-(dimethylamino)propoxy)-6-methoxyquinazolin-4-yloxy)-3-fluorophenyl)-6-ethyl-1,2-dimethyl-4-oxo-1,4-dihydroquinoline-3-carboxamide] showed an IC50 of 1.1 nM.

For the compound `CCc1ccc2c(c1)c(=O)c(C(=O)Nc1ccc(Oc3ncnc4[nH]cc(-c5ccccc5)c34)cc1)c(C)n2C` [TL4830014, 6-ethyl-1,2-dimethyl-4-oxo-N-(4-((5-phenyl-7H-pyrrolo[2,3-d]pyrimidin-4-yl)oxy)phenyl)-1,4-dihydroquinoline-3-carboxamide], the IC50 came to 105 nM.

On to `CC1CCc2c(N3CCC(O)CC3)c(F)cc3c(=O)c(C(=O)Nc4ccc(Oc5ncnc6[nH]cc(-c7ccccc7)c56)c(F)c4)cn1c23` (stereo not shown) [GDL5000076, 9-fluoro-N-(3-fluoro-4-((5-phenyl-7H-pyrrolo[2,3-d]pyrimidin-4-yl)oxy)phenyl)-8-(4-hydroxypiperidin-1-yl)-5-methyl-1-oxo-1,5,6,7-tetrahydropyrido[3,2,1-ij]quinoline-2-carboxamide], for which the IC50 is 627 nM.

With `Cc1cc2c3c(c1)c(=O)c(C(=O)Nc1ccc(Oc4ncnc5[nH]cc(-c6ccccc6)c45)c(F)c1)cn3CCC2` [TL4800160, N-(3-fluoro-4-((5-phenyl-7H-pyrrolo[2,3-d]pyrimidin-4-yl)oxy)phenyl)-9-methyl-1-oxo-1,5,6,7-tetrahydropyrido[3,2,1-ij]quinoline-2-carboxamide], half-maximal inhibition (IC50) required 129 nM.

In the case of `O=C(Nc1ccc(Oc2ncnc3[nH]cc(-c4ccccc4)c23)c(F)c1)c1cn(C2CC2)c2cc(N3CCNCC3)c(F)cc2c1=O` [TL4800095, 1-cyclopropyl-6-fluoro-N-(3-fluoro-4-((5-phenyl-7H-pyrrolo[2,3-d]pyrimidin-4-yl)oxy)phenyl)-4-oxo-7-(piperazin-1-yl)-1,4-dihydroquinoline-3-carboxamide], inhibition was half-maximal at 110 nM (IC50).

`CCc1cc2c(=O)c(C(=O)Nc3ccc(Oc4ncnc5cc(OC)c(OC)cc45)c(F)c3)c(C)n(C)c2cc1N1CCN(C)CC1` [TL4830071, N-(4-(6,7-dimethoxyquinazolin-4-yloxy)-3-fluorophenyl)-6-ethyl-1,2-dimethyl-7-(4-methylpiperazin-1-yl)-4-oxo-1,4-dihydroquinoline-3-carboxamide] gave a 50% inhibitory concentration (IC50) of 14.8 nM.

Turning to `CCc1ccc2c(c1)c(=O)c(C(=O)Nc1ccc(Oc3ccnc(NCc4ccccc4)c3)c(F)c1)c(C)n2C`, the concentration for half-maximal inhibition (IC50) is more than 10000 nM.

As to `Cc1c(C(=O)Nc2ccc(Oc3ncnc4[nH]cc(-c5ccccc5)c34)c(F)c2)c(=O)c2c(Cl)cccc2n1C` [TL50081, 5-chloro-N-(3-fluoro-4-((5-phenyl-7H-pyrrolo[2,3-d]pyrimidin-4-yl)oxy)phenyl)-1,2-dimethyl-4-oxo-1,4-dihydroquinoline-3-carboxamide], the IC50 is more than 10000 nM.

Compound `Cc1c(C(=O)Nc2ccc(Oc3ncnc4[nH]cc(-c5ccccc5)c34)c(F)c2)c(=O)c2cc(C3CCCC3)ccc2n1C` [TL50161, 6-cyclopentyl-N-(3-fluoro-4-((5-phenyl-7H-pyrrolo[2,3-d]pyrimidin-4-yl)oxy)phenyl)-1,2-dimethyl-4-oxo-1,4-dihydroquinoline-3-carboxamide] showed an IC50 of 195 nM.
